SMILES strings stand for the structures. Where only a bound is given, the exact number is not on record here.

In experiment [1] the target is Metallo-beta-lactamase type 2 (Bacteria, UniProt C7C422).
Description: Inhibition of C-terminal 6His-tagged full length NDM-1 (unknown origin) expressed in Escherichia coli BL21-DE3 using nitrocefin as substrate incubated for 15 mins followed by substrate addition by absorbance based microplate reader analysis
The target in experiment [2] is T1, 72 kDa type IV collagenase (Homo sapiens, UniProt P08253). As to the kind of experiment: Inhibition of human recombinant MMP-2 CD at 10 uM using OMNIMMP as substrate incubated for 30 mins by fluorescence based analysis relative to control.
Target sequence in this assay (P08253 110-660 limits assumed): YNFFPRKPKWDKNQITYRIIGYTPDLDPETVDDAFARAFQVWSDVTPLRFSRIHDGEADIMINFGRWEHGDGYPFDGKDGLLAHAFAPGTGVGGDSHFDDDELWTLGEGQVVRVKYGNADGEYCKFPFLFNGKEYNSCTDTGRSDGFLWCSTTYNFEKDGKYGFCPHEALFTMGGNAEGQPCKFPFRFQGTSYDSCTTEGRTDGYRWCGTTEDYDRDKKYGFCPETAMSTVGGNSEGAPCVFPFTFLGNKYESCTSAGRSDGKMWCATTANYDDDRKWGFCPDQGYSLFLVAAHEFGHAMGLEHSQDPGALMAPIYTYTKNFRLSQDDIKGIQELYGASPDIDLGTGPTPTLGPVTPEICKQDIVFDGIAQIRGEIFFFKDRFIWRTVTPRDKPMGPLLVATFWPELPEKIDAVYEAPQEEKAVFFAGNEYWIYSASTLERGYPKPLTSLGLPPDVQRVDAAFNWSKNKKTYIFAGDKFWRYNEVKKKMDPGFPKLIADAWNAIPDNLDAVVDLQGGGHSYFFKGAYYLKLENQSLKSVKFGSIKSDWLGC
Experiment [3] concerns the target Histone deacetylase 1 (Homo sapiens) (UniProt Q13547). As to the kind of experiment: Inhibition of C-terminal 6His/FLAG-tagged human recombinant full-length HDAC1 (1 to 482(end) residues) at 10 uM using Boc-Lys-(Ac)-AMC as substrate incubated for 10 mins followed by substrate addition measured after 1 hr by fluorescence based analysis relative to control. To be noted: time 70.0 min.

Experiment [4] has as its target Carbonic anhydrase 2 (Homo sapiens) (UniProt P00918). Kind of experiment: Inhibition of human CA2 at 10 uM using pNPA as substrate preincubated for 15 mins followed by substrate by absorbance based analysis relative to control.
Experiment [5] in a line: Inhibition of IMP-1 (unknown origin) expressed in Escherichia coli BL21-DE3 incubated for 15 mins by absorbance based microplate reader analysis. Details: species or system Bacteria.
The nature of experiment [6]: Inhibition of VIM-2 (unknown origin) incubated for 15 mins by absorbance based microplate reader analysis. Details: species or system Bacteria.
The nature of experiment [7]: Inhibition of GIM1 (unknown origin) incubated for 15 mins by absorbance based microplate reader analysis. Details: species or system Bacteria.
Experiment [8] is described as follows: Selectivity ratio of Ki for human recombinant MMP-2 CD to Ki for C-terminal 6His-tagged full length NDM-1 (unknown origin).
Experiment [9] addresses T1, 72 kDa type IV collagenase. Kind of experiment: Binding affinity to human recombinant MMP-2 CD assessed as inhibition constant using OMNIMMP as substrate incubated for 30 mins by fluorescence based analysis.
Target sequence in this assay (P08253 whole entry): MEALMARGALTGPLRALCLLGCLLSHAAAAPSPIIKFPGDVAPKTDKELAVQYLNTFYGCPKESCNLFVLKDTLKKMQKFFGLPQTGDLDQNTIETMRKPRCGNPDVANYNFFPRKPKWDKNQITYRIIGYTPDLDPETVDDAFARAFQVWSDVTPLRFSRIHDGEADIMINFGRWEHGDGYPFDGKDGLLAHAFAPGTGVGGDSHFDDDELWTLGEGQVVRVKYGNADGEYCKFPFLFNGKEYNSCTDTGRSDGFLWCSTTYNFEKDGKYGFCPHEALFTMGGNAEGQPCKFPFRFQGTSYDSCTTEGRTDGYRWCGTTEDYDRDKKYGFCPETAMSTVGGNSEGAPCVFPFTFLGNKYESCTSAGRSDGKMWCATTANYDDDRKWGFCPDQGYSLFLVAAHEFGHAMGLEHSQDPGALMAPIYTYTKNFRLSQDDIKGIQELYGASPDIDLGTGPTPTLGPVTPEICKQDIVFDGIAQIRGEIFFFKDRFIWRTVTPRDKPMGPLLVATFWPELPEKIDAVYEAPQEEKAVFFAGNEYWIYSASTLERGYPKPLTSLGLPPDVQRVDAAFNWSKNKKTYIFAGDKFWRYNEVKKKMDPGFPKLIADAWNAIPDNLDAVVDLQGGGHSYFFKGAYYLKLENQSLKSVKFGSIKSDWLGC

Chain of Histone deacetylase 1 (Homo sapiens) (Q13547 whole entry): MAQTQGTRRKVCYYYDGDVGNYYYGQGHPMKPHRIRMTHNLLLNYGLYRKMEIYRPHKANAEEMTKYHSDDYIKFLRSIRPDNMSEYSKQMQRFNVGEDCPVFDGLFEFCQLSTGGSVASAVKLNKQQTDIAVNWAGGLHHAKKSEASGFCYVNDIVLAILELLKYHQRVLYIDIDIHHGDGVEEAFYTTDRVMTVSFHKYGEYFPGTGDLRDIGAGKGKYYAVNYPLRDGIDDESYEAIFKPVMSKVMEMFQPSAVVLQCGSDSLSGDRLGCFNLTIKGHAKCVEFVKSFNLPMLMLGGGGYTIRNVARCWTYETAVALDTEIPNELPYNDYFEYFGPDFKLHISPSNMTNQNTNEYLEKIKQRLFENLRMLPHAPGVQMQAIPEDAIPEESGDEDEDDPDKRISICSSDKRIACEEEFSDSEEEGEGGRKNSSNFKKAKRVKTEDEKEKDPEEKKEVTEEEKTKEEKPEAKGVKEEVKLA
Chain of Metallo-beta-lactamase type 2 (C7C422 whole entry): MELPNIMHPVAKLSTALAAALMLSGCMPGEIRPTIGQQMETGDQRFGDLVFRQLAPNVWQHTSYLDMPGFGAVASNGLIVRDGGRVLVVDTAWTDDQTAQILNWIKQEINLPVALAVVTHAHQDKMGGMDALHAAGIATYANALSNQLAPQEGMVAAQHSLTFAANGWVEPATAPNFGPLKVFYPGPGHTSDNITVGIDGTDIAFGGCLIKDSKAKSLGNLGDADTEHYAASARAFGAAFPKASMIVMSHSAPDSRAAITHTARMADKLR

As usually defined, the IC50 is the concentration that gives 50% inhibition. In experiment [1], `Cc1ccc2cccc(O)c2n1` [8-HYDROXY QUINALDINE] displayed an IC50 of 274 µM.

In experiment [1], `O=C(O)c1ccc2cccc(NS(=O)(=O)c3ccc(Cl)cc3)c2n1` yielded an IC50 of 0.45 µM.

The compound `COC(=O)c1ccc2cccc(NS(C)(=O)=O)c2n1` returned an IC50 in experiment [1] of 17.6 µM.

A word on the inhibition: it is the percentage by which the read-out fell short of the control. Turning to `CS(=O)(=O)Nc1ccc(-c2cccc(N)c2)c2ccc(C(=O)O)nc12`, the inhibition in experiment [2] is 95%; in experiment [3], below 5%; in [4], below 5%. Further, in [1], it took 2.1 µM to reach half-maximal inhibition (IC50).

In experiment [1], `CS(=O)(=O)Nc1c(Cl)cc(Cl)c2ccc(C(=O)O)nc12` registered an IC50 above 1000 µM.

The term Ki denotes the dissociation constant of the complex between target and ligand, obtained from inhibition or displacement. For `O=C(O)c1ccc2cccc(NS(=O)(=O)c3ccccc3)c2n1`, the IC50 was determined as 1.22 µM in [5], 0.43 µM in [6], 3.07 µM in experiment [7] and 0.71 µM in experiment [1]. Besides, the figures for the inhibition in experiment [2], in [3] and in [4] were above 90%, below 5% and below 5%, respectively. Further, the Ratio Ki in experiment [8] came to 6. Further, the Ki in experiment [9] is 2.12 µM.

Regarding `COC(=O)c1ccc2cccc(NS(=O)(=O)c3ccc(C(F)(F)F)cc3)c2n1`, the midpoint of inhibition in experiment [1], the IC50, lay at 0.75 µM.

With `CONC(=O)c1cccc(C(=O)O)n1`, in experiment [1], the IC50 turned out to be 27.8 µM.

Compound `O=C(O)c1ccc2cccc(NS(=O)(=O)c3c(Cl)cc(Cl)cc3Cl)c2n1` gave an IC50 in experiment [1] of 0.44 µM. Compared with the last compound, the IC50 is about 63-fold lower.

In turn, `O=S(=O)(Nc1cccc2cccnc12)c1cccc(F)c1` displayed an IC50 in [1] of 6.2 µM.

Turning to `O=C(O)c1ccc2cccc(O)c2n1`, the IC50 in experiment [5] was 10.3 µM; in experiment [6], 0.61 µM; in experiment [7], 7.38 µM; in experiment [1], 9.1 µM. For the same compound, the inhibition in [2], in experiment [3] and in experiment [4] was below 5% each time.

Consider `CS(=O)(=O)Nc1cc(Cl)c(Cl)c2ccc(C(=O)O)nc12`, for which the IC50 in [5] worked out at 5.23 µM; in [6], 0.47 µM; in [7], 11.2 µM; in [1] it was 0.95 µM. The inhibition is 91% in [2], below 5% in [3] and below 5% in experiment [4].

Regarding `O=C(O)c1cc(Cl)c2cccc(NS(=O)(=O)c3ccccn3)c2n1`, the IC50 in experiment [1] stood at 0.28 µM.

`O=C(O)c1cccc(C(=O)O)n1` [DIPICOLINIC ACID]: the concentration for half-maximal inhibition (IC50) in experiment [5] was determined as 9.75 µM; in experiment [6], 0.45 µM; in experiment [7], 15.6 µM; in experiment [1], 7 µM. Also, the inhibition in experiment [2], in [3] and in [4] was below 5% in each case.

With `O=C(O)c1ccc2cccc(NS(=O)(=O)c3cccc([N+](=O)[O-])c3)c2n1`, the IC50 in [1] was determined as 0.56 µM.

`O=C(O)c1ccc2cccc(NS(=O)(=O)c3cccc4cccnc34)c2n1`: the inhibition in experiment [2] was above 90%. Moreover, in experiment [8], the Ratio Ki was determined as 50. Besides, the Ki in [9] worked out at 20.7 µM. In addition, the IC50 in [1] is 0.83 µM.

In turn, `O=C(O)c1ccccn1` [2-PICOLINIC ACID] had an IC50 in [1] of 303 µM.

Consider `Oc1cccc2ccc(-c3ccccc3)nc12`, for which, in experiment [1], the IC50 is above 1000 µM.

Take `CONC(=O)c1cccc(C(=O)NOC)n1`: the midpoint of inhibition in [1], the IC50, lay at 84.3 µM. In other words, the double-digit micromolar range.

`O=C(O)c1cccc(C(=O)NOCc2ccccc2)n1` came in with a half-maximal inhibitory concentration (IC50) in experiment [1] of 22.7 µM.

On to `CS(=O)(=O)Nc1ccc(I)c2ccc(C(=O)O)nc12`, for which the inhibition in [2] is 94%; in experiment [3], below 5%; in [4], below 5%. Also, in [1], the IC50 is 1.4 µM.

The compound `N#Cc1ccccc1S(=O)(=O)Nc1cccc2ccc(C(=O)O)nc12` returned an IC50 in experiment [1] of 0.47 µM. That is a sub-micromolar value.

`O=C(NO)c1cccc(C(=O)NO)n1`: the IC50 in [1] was above 1000 µM.

`O=C(O)c1ccc2c(Cl)cc(I)c(O)c2n1` yielded an IC50 in experiment [1] of 0.48 µM.

Regarding `O=C(O)c1ccc2cccc(NS(=O)(=O)c3ccc(C(F)(F)F)cc3[N+](=O)[O-])c2n1`, the IC50 in experiment [5] was determined as 0.24 µM; in experiment [6] it was 0.38 µM; in experiment [7], 1.5 µM; in [1], 0.37 µM. Besides, the inhibition was above 90% in experiment [2], below 5% in experiment [3] and below 5% in experiment [4]. Moreover, in [8], the Ratio Ki is 3. In addition, the Ki in [9] was 0.6 µM.

Take `O=C(O)c1ccc2c(I)cc(I)c(O)c2n1`: the inhibition was 5% in experiment [2], below 5% in experiment [3] and below 5% in experiment [4]. In experiment [1], this compound yielded an IC50 of 0.3 µM.

Compound `Cc1ccc2cccc(NS(=O)(=O)c3ccccc3)c2n1` registered an IC50 in [1] of 1.6 µM.

Turning to `O=C([O-])CN(CCN(CC(=O)[O-])CC(=O)O)CC(=O)O.[Na+].[Na+]`, the values for the inhibition in experiment [2], in experiment [3] and in experiment [4] were 23%, below 5% and below 5%, respectively.

For the compound `C[C@H](CS)C(=O)N1CCC[C@H]1C(=O)O`, the inhibition in experiment [2], in experiment [3] and in [4] was below 5% each time.

Consider `O=C(O)c1ccc2cccc(NS(=O)(=O)C(F)(F)F)c2n1`, for which, in [1], the IC50 is 0.9 µM. This lies in the sub-micromolar range.

As for `COC(=O)c1ccc2cccc(NS(=O)(=O)c3cccc(F)c3)c2n1`, 1.7 µM corresponded to half-maximal inhibition in experiment [1] (IC50). This IC50 is about 1.9-fold higher than that of the compound before.

`Oc1c(I)cc(I)c2cccnc12` [IODOQUINOL] gave a 50% inhibitory concentration (IC50) in [1] of 2.5 µM.

`O=C(O)c1ccc2cccc(NS(=O)(=O)c3cccc(Cl)c3)c2n1` showed an IC50 in experiment [1] of 0.5 µM. Compared with the last compound, the IC50 is about 5-fold lower.

In the case of `CS(=O)(=O)Nc1cccc2c(Cl)cc(C(=O)O)nc12`, the IC50 was 8.11 µM in experiment [5], 0.47 µM in experiment [6], 21.1 µM in experiment [7] and 1 µM in experiment [1]. The inhibition in experiment [2] was 90%; in experiment [3], below 5%; in [4], below 5%.

Consider `O=C(O)c1ccc2cccc(NS(=O)(=O)c3ccccc3Cl)c2n1`, for which the IC50 in [1] came out at 0.44 µM. In other words, the sub-micromolar range.

`O=C(O)c1cc(-c2cccc(F)c2)c2cccc(NS(=O)(=O)c3ccccn3)c2n1` yielded an IC50 in experiment [1] of 0.37 µM.

In [1], `CS(=O)(=O)Nc1cccc2c(-c3cccc(N)c3)cc(C(=O)O)nc12` showed an IC50 of 0.71 µM. Against the preceding compound, the IC50 is about 1.9-fold higher.

As for `O=C(NOCc1ccccc1)c1ccccn1`, in experiment [1], the half-inhibitory concentration (IC50) is 530 µM.

In experiment [1], `O=C(NOCc1ccccc1)c1ccc2c(Br)cc(Br)c(O)c2n1` returned an IC50 of 1.47 µM.

`Cc1ccc2cccc(NS(=O)(=O)c3cccc(F)c3)c2n1` gave an IC50 in experiment [1] of 1.4 µM.

On to `Nc1cccc(-c2cc(C(=O)O)nc3c(NS(=O)(=O)c4ccccn4)cccc23)c1`, for which the IC50 in experiment [1] is 0.25 µM.

The compound `O=C(O)c1ccc2c(Br)cc(Br)c(O)c2n1` gave an IC50 in experiment [1] of 0.46 µM.

`O=C(O)c1ccc2c(I)cc(I)c(NS(=O)(=O)c3ccccc3)c2n1` displayed an IC50 in [1] above 1000 µM.

The compound `O=C(O)c1ccc2cccc(NS(=O)(=O)c3cccc(F)c3)c2n1` returned a half-inhibitory concentration (IC50) in experiment [1] of 0.68 µM.

`O=C(O)c1ccc2c(Cl)c(Cl)cc(NS(=O)(=O)c3ccccn3)c2n1` came in with an IC50 in experiment [1] of 0.52 µM. The IC50 values of the last two compounds are within 1.5-fold of each other.

`CON(C)C(=O)c1ccccn1`: the IC50 in experiment [1] is above 2000 µM.

As for `O=C(NOCc1ccccc1)c1ccc2cccc(O)c2n1`, the IC50 in experiment [5] came to 25.2 µM; in [1], 11.2 µM.

Regarding `O=C(O)c1ccc2ccc3c(c2n1)NS(=O)(=O)c1ccc(C(F)(F)F)cc1-3`, the inhibition is above 90% in experiment [2], below 5% in experiment [3] and below 5% in [4]. Moreover, the Ratio Ki in experiment [8] was found to be 135. The Ki in [9] amounted to 27.6 µM. In [1], inhibition was half-maximal at 0.41 µM (IC50).

`CONC(=O)c1ccccn1` registered an IC50 in experiment [1] of 1240 µM.

In the case of `O=C(O)c1ccc2c(Cl)cc(Cl)c(O)c2n1`, the IC50 in experiment [5] came to 0.48 µM; in experiment [6], 0.16 µM; in experiment [7], 1.26 µM; in [1], 0.54 µM. The inhibition in [2] was 20%; in [3] it was below 5%; in experiment [4], below 5%.

`O=C(O)c1ccc2c(Cl)ccc(NS(=O)(=O)c3ccccn3)c2n1` returned an IC50 in [1] of 0.29 µM.

For `Cc1ccc(S(=O)(=O)Nc2cccc3ccc(C(=O)O)nc23)cc1`, inhibition in experiment [1] was half-maximal at 1.41 µM (IC50).

Take `O=C(O)c1ccc2cccc(NS(=O)(=O)Cc3ccccc3)c2n1`: in [1], the IC50 was 1.28 µM.

For the compound `O=C(NOCc1ccccc1)c1cccc(C(=O)NOCc2ccccc2)n1`, the IC50 turned out to be 102 µM in experiment [5] and 7.2 µM in experiment [1]. Further, the inhibition in [2], in experiment [3] and in experiment [4] was below 5% each time.

In turn, `CONC(=O)c1ccc2cccc(O)c2n1` gave a half-maximal inhibitory concentration (IC50) in experiment [1] of 13.7 µM. That is a double-digit micromolar value.
